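These data come from cells grown in 96-well plates and exposed to compound for 48 hours at five concentrations. GI50 is the concentration that inhibits growth by half. TGI denotes the concentration required for complete inhibition of growth.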
Columns and labels:
Experiment in all cases: inhibition of tumour cell growth, NCI panel, 48 h
[1] = system: TK-10 renal
[2] = system: OVCAR-8 ovarian
[3] = system: COLO 205 colon
[4] = system: MDA-MB-231 breast
[5] = system: SR leukemia
[6] = system: 786-0 renal
[7] = system: PC-3 prostate
[8] = system: HCT-116 colon
[9] = system: HT29 colon
[10] = system: LOX IMVI melanoma
[11] = system: HCT-15 colon
[12] = system: UACC-257 melanoma
[13] = system: MDA-MB-435
[14] = system: OVCAR-4 ovarian
[15] = system: HOP-92 NSCLC
[16] = system: NCI-H23 lung
[17] = system: SK-OV-3 ovarian
[18] = system: SK-MEL-28 melanoma
[19] = system: MCF7 breast
[20] = system: M14 melanoma
[21] = system: KM12 colon
[22] = system: HL-60(TB) leukemia
[23] = system: RPMI-8226 leukemia
[24] = system: SN12C renal
[25] = system: T-47D breast
[26] = system: SW-620 colon
[27] = system: NCI-H226 lung
[28] = system: UO-31 renal
[29] = system: SNB-19 CNS
[30] = system: ACHN renal
[31] = system: SNB-75 CNS
[32] = system: HCC-2998 colon
[33] = system: SK-MEL-5 melanoma
[34] = system: IGROV1 ovarian
[35] = system: SF-295 CNS
[36] = system: MALME-3M melanoma
[37] = system: CCRF-CEM leukemia
[38] = system: NCI-H522 lung
[39] = system: MOLT-4 leukemia
[40] = system: A549 NSCLC
[41] = system: U251 CNS
[42] = system: RXF 393 renal
[43] = system: NCI-H460 lung
[44] = system: UACC-62 melanoma
[45] = system: A498 renal
[46] = system: OVCAR-5 ovarian
[47] = system: K-562 leukemia
[48] = system: SF-268 CNS
[49] = system: HOP-62 NSCLC
[50] = system: SK-MEL-2 melanoma
[51] = system: CAKI-1 renal
[52] = system: NCI/ADR-RES ovarian
[53] = system: BT-549 breast
[54] = system: EKVX NSCLC
[55] = system: OVCAR-3 ovarian

CC[C@]12C=CCN3CC[C@]4(C(=C(C(=O)OC)C1)Nc1cc(OC)c(OC(C)=O)cc14)[C@@H]32
GI50 [1]: 1.02 µM | TGI [1]: 7.51 µM | GI50 [2]: 0.407 µM | TGI [2]: > 100 µM | GI50 [3]: 0.769 µM | TGI [3]: 4.52 µM | GI50 [4]: 0.389 µM | TGI [4]: 14.5 µM | GI50 [5]: 0.164 µM | TGI [5]: 11.2 µM | GI50 [6]: 0.318 µM | TGI [6]: 10 µM | GI50 [7]: 0.384 µM | TGI [7]: 15.2 µM | GI50 [8]: 0.275 µM | TGI [8]: 1.38 µM | GI50 [9]: 1.86 µM | TGI [9]: 11 µM | GI50 [10]: 0.254 µM | TGI [10]: 1.27 µM | GI50 [11]: 0.31 µM | TGI [11]: 1.56 µM | GI50 [12]: 1.97 µM | TGI [12]: 17.5 µM | GI50 [13]: 0.1 µM | TGI [13]: 0.319 µM | GI50 [14]: 0.446 µM | TGI [14]: 17.5 µM | GI50 [15]: 0.247 µM | TGI [15]: 10.3 µM | GI50 [16]: 0.395 µM | TGI [16]: 18.8 µM | GI50 [17]: 0.325 µM | TGI [17]: 12.5 µM | GI50 [18]: 1.62 µM | TGI [18]: 12.5 µM | GI50 [19]: 0.238 µM | TGI [19]: 14.4 µM | GI50 [20]: 0.181 µM | TGI [20]: 0.684 µM | GI50 [21]: 0.303 µM | TGI [21]: 2.64 µM | GI50 [22]: 0.184 µM | TGI [22]: 0.654 µM | GI50 [23]: 0.478 µM | TGI [23]: 12.3 µM | GI50 [24]: 0.53 µM | TGI [24]: 14.8 µM | GI50 [25]: 1.42 µM | TGI [25]: 17.8 µM | GI50 [26]: 0.319 µM | TGI [26]: 10.5 µM | GI50 [27]: 0.917 µM | TGI [27]: 21.9 µM | GI50 [28]: 0.483 µM | TGI [28]: 5.6 µM | GI50 [29]: 0.591 µM | TGI [29]: 21.5 µM | GI50 [30]: 0.176 µM | TGI [30]: 2.62 µM | GI50 [31]: 0.308 µM | TGI [31]: 21 µM | GI50 [32]: 0.416 µM | TGI [32]: 6.79 µM | GI50 [33]: 0.209 µM | TGI [33]: 0.481 µM | GI50 [34]: 0.473 µM | TGI [34]: 20.4 µM | GI50 [35]: 0.377 µM | TGI [35]: 14.6 µM | GI50 [36]: 1.42 µM | TGI [36]: 16.1 µM | GI50 [37]: 0.38 µM | TGI [37]: 1.86 µM | GI50 [38]: 0.0819 µM | TGI [38]: 1.04 µM | GI50 [39]: 0.383 µM | TGI [39]: 14.9 µM | GI50 [40]: 0.397 µM | TGI [40]: 19 µM | GI50 [41]: 0.386 µM | TGI [41]: 12 µM | GI50 [42]: 0.389 µM | TGI [42]: 8.88 µM | GI50 [43]: 0.36 µM | TGI [43]: 11.6 µM | GI50 [44]: 0.326 µM | TGI [44]: 3.08 µM | GI50 [45]: 0.133 µM | TGI [45]: 0.718 µM | GI50 [46]: 0.719 µM | TGI [46]: 16.2 µM | GI50 [47]: 0.274 µM | TGI [47]: 15.4 µM | GI50 [48]: 0.399 µM | TGI [48]: 13.2 µM | GI50 [49]: 0.4 µM | TGI [49]: 14.1 µM | GI50 [50]: 0.689 µM | TGI [50]: 23 µM | GI50 [51]: 0.503 µM | TGI [51]: 15.6 µM | GI50 [52]: 0.339 µM | TGI [52]: 89.9 µM | GI50 [53]: 0.244 µM | TGI [53]: 0.674 µM | GI50 [54]: 0.625 µM | TGI [54]: 19.3 µM | GI50 [55]: 0.225 µM | TGI [55]: 0.602 µM
